Test systems include MOLT-4; RXF 393; MCF7; SK-MEL-5; LOX IMVI; Malme-3M; SK-OV-3; MDA-N; HCT-116; OVCAR-4; SF-268; A498; SF-539; K562; M14; MDA-MB-231; U-251; IGROV-1; SW-620; T47D.
Holding throughout (experiment): growth of human tumour cells (NCI), 48 h

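Method: 48-hour compound exposure of cells in 96-well plates, five concentrations, linear interpolation of endpoints. Abbreviation: GI50, concentration required for 50% inhibition of growth.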 Calls of active or inactive are those of the source. Cut-off read from the data, not from the text of the source: active = GI50 up to about 1.1 µM and inactive = higher. Where only a bound is given, the exact number is not on record here.

Consider `OCCCN=C1CCCCC1`, for which the GI50 in the test with MOLT-4, in the test with RXF 393, in the test with MCF7, in the test with SK-MEL-5, in the test on LOX IMVI and with Malme-3M was > 100 µM (inactive) in each case. For the same compound, the GI50 with SK-OV-3, in the test on MDA-N, in the test on HCT-116, in the test with OVCAR-4, with SF-268 and in the test with A498 was > 100 µM (inactive) throughout. Further, the GI50 with SF-539, in the test on K562, in the test on M14, with MDA-MB-231, in the test on U-251 and with IGROV-1 was > 100 µM (inactive) in each case. In addition, the GI50 in the test on SW-620 and with T47D was > 100 µM (inactive) in each case.
As for `CC(=O)O/C=C\OC1CCCC1(c1ccccc1)c1ccccc1` (stereo not given), the GI50 in the test on MOLT-4 was 2.79 µM (inactive); in the test on RXF 393, 2.3 µM (inactive); in the test on MCF7 it was 2.21 µM (inactive); in the test on SK-MEL-5, 2.61 µM (inactive); in the test with LOX IMVI, 1.63 µM (inactive); with Malme-3M it was 2.18 µM (inactive). The GI50 with SK-OV-3 is 14.4 µM (inactive); in the test on MDA-N it was 2.31 µM (inactive); in the test with HCT-116, 1.98 µM (inactive); in the test with OVCAR-4, 2.1 µM (inactive); in the test with SF-268, 2.92 µM (inactive); in the test with A498 it was 18 µM (inactive). Moreover, the GI50 was 1.73 µM (inactive) with SF-539; 2.16 µM (inactive) in the test on K562; 2.47 µM (inactive) with M14; 2.4 µM (inactive) in the test with MDA-MB-231; 3.52 µM (inactive) with U-251; 2.24 µM (inactive) with IGROV-1. In addition, the GI50 in the test with SW-620 is 2.42 µM (inactive); in the test on T47D, 2.47 µM (inactive).
On to `Cc1cccc2c(N)c3cccc(C(=O)NCC[N+]4(Cc5ccc([N+](=O)[O-])cc5)CCOCC4)c3nc12`, for which the GI50 in the test on MOLT-4 is 13.5 µM (inactive); in the test on RXF 393, 62.2 µM (inactive); in the test on MCF7, 38.9 µM (inactive); in the test on SK-MEL-5, 53.5 µM (inactive); in the test on LOX IMVI, 39.9 µM (inactive); with Malme-3M, 29.4 µM (inactive). The GI50 with SK-OV-3 is > 100 µM (inactive); in the test with MDA-N it was 59.6 µM (inactive); with HCT-116 it was 16.1 µM (inactive); in the test on OVCAR-4 it was 61.9 µM (inactive); in the test with SF-268, 15.6 µM (inactive); in the test on A498, 42.2 µM (inactive). In addition, the GI50 is 24.8 µM (inactive) with SF-539; 16 µM (inactive) in the test with K562; 71.8 µM (inactive) in the test with M14; > 60.1 µM (inactive) with MDA-MB-231; 38.8 µM (inactive) in the test on U-251; 20.6 µM (inactive) in the test on IGROV-1. The GI50 was 44.2 µM (inactive) in the test on SW-620 and 29.2 µM (inactive) in the test with T47D.
Turning to `COc1cc(CNc2nc3ccccc3n2Cc2ccccc2)cc(CN2CCOCC2)c1O`, the GI50 in the test with MOLT-4 was 53.8 µM (inactive); in the test with RXF 393, 18.2 µM (inactive); with MCF7 it was 31.7 µM (inactive); with SK-MEL-5, 18.6 µM (inactive); with LOX IMVI, 15.5 µM (inactive); in the test with Malme-3M, 19.1 µM (inactive). The GI50 is 96.8 µM (inactive) in the test with SK-OV-3; 27.4 µM (inactive) in the test with MDA-N; 21.2 µM (inactive) with HCT-116; 61.4 µM (inactive) in the test with OVCAR-4; 59.8 µM (inactive) in the test on SF-268; 21.1 µM (inactive) in the test with A498. For the same compound, the GI50 with SF-539 is 20 µM (inactive); with K562, 21.5 µM (inactive); with M14 it was 24.7 µM (inactive); in the test with MDA-MB-231, 18.7 µM (inactive); with U-251, 31.2 µM (inactive); in the test on IGROV-1, 52 µM (inactive). In addition, the GI50 in the test on SW-620 is 45.6 µM (inactive); with T47D it was > 100 µM (inactive).
On to `Cc1cc(C)c([S@@](=O)O[C@@H]2[C@H]3OC(C)(C)O[C@H]3O[C@@H]2[C@H]2COC(C)(C)O2)c(C)c1`, for which the GI50 is 17 µM (inactive) in the test on MOLT-4; 19.3 µM (inactive) with RXF 393; 16.7 µM (inactive) in the test with MCF7; 31.2 µM (inactive) in the test with SK-MEL-5; 14 µM (inactive) with LOX IMVI; 25.5 µM (inactive) with Malme-3M. The GI50 in the test with SK-OV-3 was 36.6 µM (inactive); in the test on MDA-N, 26.6 µM (inactive); in the test on HCT-116, 24.8 µM (inactive); in the test with OVCAR-4, 16.5 µM (inactive); in the test on SF-268 it was 31.9 µM (inactive); in the test on A498, 11.8 µM (inactive). In addition, the GI50 with SF-539 is 19.5 µM (inactive); in the test with K562 it was 25.9 µM (inactive); in the test on M14 it was 25.6 µM (inactive); in the test on MDA-MB-231, 26.7 µM (inactive); in the test with U-251 it was 20.2 µM (inactive); in the test with IGROV-1, 4.24 µM (inactive). Besides, the GI50 was 20 µM (inactive) with SW-620 and 37.5 µM (inactive) with T47D.
With `N#Cc1cnc(N)nc1NCC1(CO)CC(CCc2ccccc2)C1` (stereo not given), the GI50 in the test with MOLT-4 was 3.15 µM (inactive); in the test with RXF 393, 49 µM (inactive); in the test on MCF7, 49.1 µM (inactive); with SK-MEL-5, 1.72 µM (inactive); in the test with LOX IMVI, 5.26 µM (inactive); in the test on Malme-3M it was > 100 µM (inactive). Further, the GI50 in the test on SK-OV-3 is 27.1 µM (inactive); with MDA-N, 29.9 µM (inactive); in the test on HCT-116 it was 12 µM (inactive); in the test with OVCAR-4 it was > 100 µM (inactive); with SF-268 it was > 55.6 µM (inactive); in the test on A498, 29 µM (inactive). Moreover, the GI50 is > 100 µM (inactive) in the test on SF-539; 2.51 µM (inactive) in the test with K562; > 100 µM (inactive) with M14; 56.2 µM (inactive) with MDA-MB-231; > 59.2 µM (inactive) in the test on U-251; 55 µM (inactive) in the test on IGROV-1. Further, the GI50 was > 100 µM (inactive) in the test on SW-620 and 0.301 µM (active) in the test on T47D.
With `CCOC(=O)C(Cc1ccc2c(c1)CCC2)Cc1ccc2c(c1)CCC2`, the GI50 is 16.9 µM (inactive) with MOLT-4; > 100 µM (inactive) in the test with RXF 393; 45.4 µM (inactive) with MCF7; 18.5 µM (inactive) with SK-MEL-5; 20.7 µM (inactive) in the test with LOX IMVI; > 100 µM (inactive) in the test on Malme-3M. In addition, the GI50 in the test with SK-OV-3 was > 100 µM (inactive); in the test on MDA-N, 98.4 µM (inactive); in the test with HCT-116 it was 33.3 µM (inactive); in the test on OVCAR-4 it was > 100 µM (inactive); in the test with SF-268, > 100 µM (inactive); with A498, > 100 µM (inactive). For the same compound, the GI50 in the test on SF-539 is > 100 µM (inactive); in the test with K562 it was 26.5 µM (inactive); in the test on M14, > 100 µM (inactive); in the test with MDA-MB-231 it was > 100 µM (inactive); in the test on U-251, 51.4 µM (inactive); with IGROV-1, > 100 µM (inactive). In addition, the GI50 is > 100 µM (inactive) in the test with SW-620 and 53.1 µM (inactive) with T47D.
On to `O=C(n1c(=O)n(-c2ccc([N+](=O)[O-])cc2)c(=O)n1C(=O)C(Cl)(Cl)Cl)C(Cl)(Cl)Cl`, for which the GI50 in the test with MOLT-4 is > 10 µM (inactive); with RXF 393, > 100 µM (inactive); in the test with MCF7, 87.3 µM (inactive); with SK-MEL-5 it was > 100 µM (inactive); in the test on LOX IMVI it was > 100 µM (inactive); in the test on Malme-3M, > 100 µM (inactive). The GI50 in the test on SK-OV-3, with MDA-N, with HCT-116, in the test on OVCAR-4, with SF-268 and in the test on A498 was > 100 µM (inactive) each time. Moreover, the GI50 in the test with SF-539 was > 100 µM (inactive); in the test on K562 it was > 10 µM (inactive); in the test on M14, > 100 µM (inactive); in the test with MDA-MB-231, > 100 µM (inactive); in the test with U-251, > 100 µM (inactive); with IGROV-1 it was > 100 µM (inactive). The GI50 in the test with SW-620 and in the test with T47D was > 100 µM (inactive) each time.
In the case of `O=c1c2c(-c3ccccc3)onc2n(-c2ccccc2)c(=O)n1-c1ccccc1`, the GI50 was > 100 µM (inactive) with MOLT-4; > 100 µM (inactive) in the test with RXF 393; > 100 µM (inactive) in the test with MCF7; > 100 µM (inactive) with SK-MEL-5; > 100 µM (inactive) in the test with LOX IMVI; 17.5 µM (inactive) with Malme-3M. Further, the GI50 with SK-OV-3 is > 100 µM (inactive); in the test with MDA-N, > 100 µM (inactive); in the test with HCT-116, > 100 µM (inactive); in the test on OVCAR-4 it was 32.8 µM (inactive); in the test with SF-268, 30.1 µM (inactive); in the test with A498, > 100 µM (inactive). Besides, the GI50 in the test with SF-539 is > 100 µM (inactive); in the test with K562 it was > 100 µM (inactive); with M14, 17.1 µM (inactive); with MDA-MB-231 it was > 100 µM (inactive); in the test on U-251, > 100 µM (inactive); in the test with IGROV-1, 22.5 µM (inactive). Further, the GI50 with SW-620 and with T47D was > 100 µM (inactive) in each case.
For the compound `C=CCCC1CCCCNC1=S` (stereo not given), the GI50 in the test on MOLT-4, in the test on RXF 393, with MCF7, in the test with SK-MEL-5, in the test on LOX IMVI and with Malme-3M was > 10 µM (inactive) each time. In addition, the GI50 with SK-OV-3, in the test with MDA-N, in the test on HCT-116, in the test on OVCAR-4, in the test on SF-268 and in the test with A498 was > 10 µM (inactive) throughout. Also, the GI50 in the test on SF-539, in the test on K562, in the test with M14, in the test on MDA-MB-231, with U-251 and in the test on IGROV-1 was > 10 µM (inactive) each time. The GI50 in the test with SW-620 and with T47D was > 10 µM (inactive) throughout.

The record behind these values is ChEMBL document CHEMBL1201862, “PubChem BioAssay data set” (2004).
